Measured values taken from BindingDB's records for patent US20250059196 (Shanghai Hansoh Biomedical, 2025).

Each compound was assayed against T1, Mucosa-associated lymphoid tissue lymphoma translocation protein 1 (Homo sapiens, UniProt Q9UDY8) (assay: MALT1 Enzyme Activity Assay).
T1 sequence (Q9UDY8 whole entry): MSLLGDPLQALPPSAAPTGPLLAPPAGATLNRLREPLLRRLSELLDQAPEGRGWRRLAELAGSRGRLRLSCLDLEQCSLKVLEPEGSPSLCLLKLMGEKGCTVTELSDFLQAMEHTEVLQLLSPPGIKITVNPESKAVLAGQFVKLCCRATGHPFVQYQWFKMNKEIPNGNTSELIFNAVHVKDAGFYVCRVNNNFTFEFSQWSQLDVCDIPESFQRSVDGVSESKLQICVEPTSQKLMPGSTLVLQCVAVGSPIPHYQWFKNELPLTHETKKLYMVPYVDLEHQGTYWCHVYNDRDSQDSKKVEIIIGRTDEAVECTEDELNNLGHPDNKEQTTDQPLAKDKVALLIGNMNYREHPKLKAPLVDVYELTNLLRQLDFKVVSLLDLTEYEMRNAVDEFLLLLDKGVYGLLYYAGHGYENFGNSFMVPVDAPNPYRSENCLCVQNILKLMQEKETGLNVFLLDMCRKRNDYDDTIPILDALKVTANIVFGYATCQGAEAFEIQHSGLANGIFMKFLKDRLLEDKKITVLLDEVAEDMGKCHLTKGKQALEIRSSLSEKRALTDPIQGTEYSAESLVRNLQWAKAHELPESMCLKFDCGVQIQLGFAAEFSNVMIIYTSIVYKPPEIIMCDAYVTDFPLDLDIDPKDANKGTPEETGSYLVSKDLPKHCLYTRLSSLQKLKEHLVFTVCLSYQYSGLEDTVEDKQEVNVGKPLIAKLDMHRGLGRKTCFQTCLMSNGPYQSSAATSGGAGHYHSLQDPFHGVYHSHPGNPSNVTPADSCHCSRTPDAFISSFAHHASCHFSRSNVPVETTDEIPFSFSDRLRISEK
Description: The compound and the enzyme were pre-incubated at room temperature for 50 min. The substrate was then added and the reaction was carried out for 4 h.

IC50 [nM] | SMILES
123 | N#Cc1ccnn1-c1ncc(NC(=O)c2cnn(-c3ccc4c5c(cccc35)C(=O)N4)c2C(F)(F)F)cc1C(F)(F)F [US20250059196, Example 32]
32 | O=C(Nc1cnc(-c2ncco2)c(C(F)(F)F)c1)c1cnn(-c2ccc3c4c(cccc24)C(=O)N3)c1C(F)(F)F [US20250059196, Example 34]
140 | O=C(Nc1cnc(N2CCC2)c(Cl)c1)c1cnn(-c2ccc3c4c(cccc24)C(=O)N3)c1C(F)(F)F [US20250059196, Example 48]
104 | O=C(Nc1ccc(C(=O)N2CCCC2)c(C(F)(F)F)c1)c1cnn(-c2ccc3c4c(cccc24)C(=O)N3)c1C(F)(F)F [US20250059196, Example 52]
81 | O=C(Nc1cnc(-n2cccn2)c(C(F)(F)F)c1)c1cnn(-c2cnc3c4c(cccc24)C(=O)N3)c1C(F)(F)F [US20250059196, Example 69]
191 | O=C(Nc1ccc(-n2nccn2)c(C(F)(F)F)c1)c1cnn(-c2cnc3c4c(cccc24)C(=O)N3)c1C(F)(F)F [US20250059196, Example 73]
24 | O=C(Nc1ccc(-n2nccn2)c(Cl)c1)c1cnn(-c2cnc3c4c(cccc24)C(=O)N3)c1C(F)(F)F [US20250059196, Example 75]
35 | O=C(Nc1cnc(-n2nccn2)c(C(F)(F)F)c1)c1cnn(-c2cnc3c4c(cccc24)C(=O)N3)c1C1CC1 [US20250059196, Example 78]

The next lines start with the compound.

SMILES | IC50 [nM]
CS(C)(=O)=Nc1ncc(NC(=O)c2cnn(-c3ccc4c5c(cccc35)C(=O)N4)c2C(F)(F)F)cc1C(F)(F)F [US20250059196, Example 30] | 141
O=C(Nc1cnc(-n2cccn2)c(C(F)(F)F)c1)c1cnn(-c2ccc3c4c(cccc24)C(=O)N3)c1C(F)(F)F [US20250059196, Example 31] | 40
O=C(Nc1cnc(-c2nccs2)c(C(F)(F)F)c1)c1cnn(-c2ccc3c4c(cccc24)C(=O)N3)c1C(F)(F)F [US20250059196, Example 33] | 46
Cc1nc(-c2ncc(NC(=O)c3cnn(-c4ccc5c6c(cccc46)C(=O)N5)c3C(F)(F)F)cc2C(F)(F)F)oc1C [US20250059196, Example 35] | 59
O=C(Nc1cnc(-n2ccnn2)c(C(F)(F)F)c1)c1cnn(-c2ccc3c4c(cccc24)C(=O)N3)c1C(F)(F)F [US20250059196, Example 36] | 53
O=C(Nc1ccc(-n2cccn2)c(C(F)(F)F)c1)c1cnn(-c2ccc3c4c(cccc24)C(=O)N3)c1C(F)(F)F [US20250059196, Example 51] | 47
O=C(Nc1ccc(-n2cccn2)c(C(F)(F)F)c1)c1cnn(-c2cnc3c4c(cccc24)C(=O)N3)c1C(F)(F)F [US20250059196, Example 74] | 196
O=C(Nc1cnc(-n2nccn2)c(C(F)(F)F)c1)c1cnn(-c2ncc3c4c(cccc24)C(=O)N3)c1C(F)(F)F [US20250059196, Example 87] | 84
CCc1cc(-n2ncc(C(=O)Nc3ccnc(C(F)(F)F)c3)c2C(F)(F)F)c2cccc3c2c1NC3=O [US20250059196, Example 89] | 106
